Assays:
Assay type in all cases: in vivo, rat
IgE [1] = experiment: Ovalbumin-specific IgE ELISA of serum of immunised rats; conditions: pooled group serum
Description: (§1) Rats were injected with vaccine compositions comprising the ovalbumin antigen with and without di-oleoyl phosphatidyl serine, lyso-oleoyl phosphatidyl serine or stearoyl(X1)-arachidonoyl(X2) phosphatidyl serine and the concentrations of IgE, IgA and IgG are compared.
(§2) The animals were acclimatised for a period of 5 days prior to dosing. During the acclimatisation period animals were observed twice daily during the working week and once on each day during the weekend to evaluate the health status of the animals. Rats were then allocated to the following dose groups using computer-generated random order numbers.
(§3) On day 0, 20 μg of ovalbumin (OA) in phosphate buffered saline (PBS) with alhydrogel (AHG) adjuvant in a final volume of 0.5 mL was administered.
(§4) On days 21 and 42, 20 μg of ovalbumin (OA) in phosphate buffered saline (PBS) with the relevant test compound in a final volume of 0.5 ml was administered.
(§5) In each case, 0.5 mL of inoculum was injected subcutaneously into the scruff of the neck.
(§6) […] A blood sample was also taken from each animal on Days 15, 22, 29, 36, 43, 50, 57 and 64.
(§7) Serum was prepared by centrifugation of the blood sample at 2,500 rpm for 10 minutes and frozen at −20° C. The samples were then analysed by ELISA to establish the concentration of IgE, IgA and IgG1, IgG2a and IgG2b.
(§8) The purpose of an ELISA is to determine whether a particular protein is present in a sample and then enables quantification of how much is present. By coating the bottom of wells with ovalbumin (OVA) it is possible to bind anti-OVA specific antibodies. To detect only anti-OVA IgA antibodies anti-rat IgA conjugated to HRP was used as a secondary antibody. Quantification of specific antibodies in the rat sera samples was performed using antibody titrations. The data was reported as endpoint titers. Endpoint titers are defined as the last serum dilution giving an optical density value equal to twice the background optical density for the ELISA plate (buffer).

IgA [2] = experiment: Ovalbumin-specific IgA ELISA of serum of immunised rats; conditions: pooled group serum
Description: as §1, §2, §3, §4, §5
On Day 0 a pre-inoculation blood sample was taken. A blood sample was also taken from each animal on Days 15, 22, 29, 36, 43, 50, 57 and 64.
as §7, §8

IgG1 = experiment: Ovalbumin-specific IgG1 ELISA of serum of immunised rats; conditions: pooled group serum
Description: as §1, §2, §3, §4
(§9) In each case, 0.5 mL of inoculum was injected subcutaneously into the scruff of the neck. […]
as §7
The purpose of an ELISA is to determine whether a particular protein is present in a sample and then enables quantification of how much is present. By coating the bottom of wells with ovalbumin (OVA) it is possible to bind anti-OVA specific antibodies. […] Quantification of specific antibodies in the rat sera samples was performed using antibody titrations. The data was reported as endpoint titers. Endpoint titers are defined as the last serum dilution giving an optical density value equal to twice the background optical density for the ELISA plate (buffer).

IgG2a = experiment: Ovalbumin-specific IgG2a ELISA of serum of immunised rats; conditions: pooled group serum
Description: as §1, §2, §3, §4, §9, §7, §8

IgG2b = experiment: Ovalbumin-specific IgG2b ELISA of serum of immunised rats; conditions: pooled group serum
Description: as §1, §2, §3, §4, §5, §6, §7, §8

IgE [3] = experiment: Ovalbumin-specific IgE ELISA of serum of immunised rats; conditions: Day 1; 250 ug with 20 μg Ova s.c. on days 21 and 42; pooled group serum
IgA [4] = experiment: Ovalbumin-specific IgA ELISA of serum of immunised rats; conditions: Day 1; 50 ug with 20 μg Ova s.c. on days 21 and 42; pooled group serum
[5] = Day 1, 50 ug with 20 μg Ova s.c. on days 21 and 42
[6] = Day 15, 50 ug with 20 μg Ova s.c. on days 21 and 42
[7] = Day 15, 250 ug with 20 μg Ova s.c. on days 21 and 42
[8] = Day 22, 50 ug with 20 μg Ova s.c. on days 21 and 42
[9] = Day 22, 250 ug with 20 μg Ova s.c. on days 21 and 42
[10] = Day 29, 50 ug with 20 μg Ova s.c. on days 21 and 42
[11] = Day 29, 250 ug with 20 μg Ova s.c. on days 21 and 42
[12] = Day 36, 50 ug with 20 μg Ova s.c. on days 21 and 42
[13] = Day 36, 250 ug with 20 μg Ova s.c. on days 21 and 42
[14] = Day 43, 50 ug with 20 μg Ova s.c. on days 21 and 42
[15] = Day 43, 250 ug with 20 μg Ova s.c. on days 21 and 42
[16] = Day 50, 50 ug with 20 μg Ova s.c. on days 21 and 42
[17] = Day 50, 250 ug with 20 μg Ova s.c. on days 21 and 42
[18] = Day 57, 50 ug with 20 μg Ova s.c. on days 21 and 42
[19] = Day 57, 250 ug with 20 μg Ova s.c. on days 21 and 42
[20] = Day 64, 50 ug with 20 μg Ova s.c. on days 21 and 42
[21] = Day 64, 250 ug with 20 μg Ova s.c. on days 21 and 42
[22] = Day 1, 250 ug with 20 μg Ova s.c. on days 21 and 42

Compound: CCCCCCCC/C=C\CCCCCCCC(=O)OC[C@H](COP(=O)(O)OC[C@H](N)C(=O)O)OC(=O)CCCCCCC/C=C\CCCCCCCC [VT001, Dioleoyl phosphatidyl serine]
- IgE endpoint titer (IgE [1]; [5]): 0
- IgE endpoint titer (IgE [1]; [6]): 0
- IgE endpoint titer (IgE [1]; [7]): 0
- IgE endpoint titer (IgE [1]; [8]): 0
- IgE endpoint titer (IgE [1]; [9]): 0
- IgE endpoint titer (IgE [1]; [10]): 0
- IgE endpoint titer (IgE [1]; [11]): 40
- IgE endpoint titer (IgE [1]; [12]): 40
- IgE endpoint titer (IgE [1]; [13]): 40
- IgE endpoint titer (IgE [1]; [14]): 0
- IgE endpoint titer (IgE [1]; [15]): 80
- IgE endpoint titer (IgE [1]; [16]): 1280
- IgE endpoint titer (IgE [1]; [17]): 1280
- IgE endpoint titer (IgE [1]; [18]): 160
- IgE endpoint titer (IgE [1]; [19]): 160
- IgE endpoint titer (IgE [1]; [20]): 0
- IgE endpoint titer (IgE [1]; [21]): 40
- IgA endpoint titer (IgA [2]; [22]): 0
- IgA endpoint titer (IgA [2]; [6]): 0
- IgA endpoint titer (IgA [2]; [7]): 0
- IgA endpoint titer (IgA [2]; [8]): 0
- IgA endpoint titer (IgA [2]; [9]): 0
- IgA endpoint titer (IgA [2]; [10]): 320
- IgA endpoint titer (IgA [2]; [11]): 320
- IgA endpoint titer (IgA [2]; [12]): 640
- IgA endpoint titer (IgA [2]; [13]): 640
- IgA endpoint titer (IgA [2]; [14]): 320
- IgA endpoint titer (IgA [2]; [15]): 640
- IgA endpoint titer (IgA [2]; [16]): 1280
- IgA endpoint titer (IgA [2]; [17]): 1280
- IgA endpoint titer (IgA [2]; [18]): 1280
- IgA endpoint titer (IgA [2]; [19]): 1280
- IgA endpoint titer (IgA [2]; [20]): 640
- IgA endpoint titer (IgA [2]; [21]): 640
- IgG1 endpoint titer (IgG1; [5]): 0
- IgG1 endpoint titer (IgG1; [22]): 0
- IgG1 endpoint titer (IgG1; [6]): 160
- IgG1 endpoint titer (IgG1; [7]): 160
- IgG1 endpoint titer (IgG1; [8]): 2560
- IgG1 endpoint titer (IgG1; [9]): 2560
- IgG1 endpoint titer (IgG1; [10]): 40960
- IgG1 endpoint titer (IgG1; [11]): 20480
- IgG1 endpoint titer (IgG1; [12]): 20480
- IgG1 endpoint titer (IgG1; [13]): 40960
- IgG1 endpoint titer (IgG1; [14]): 10240
- IgG1 endpoint titer (IgG1; [15]): 10240
- IgG1 endpoint titer (IgG1; [16]): 20480
- IgG1 endpoint titer (IgG1; [17]): 10240
- IgG1 endpoint titer (IgG1; [18]): 40960
- IgG1 endpoint titer (IgG1; [19]): 40960
- IgG1 endpoint titer (IgG1; [20]): 20480
- IgG1 endpoint titer (IgG1; [21]): 20480
- IgG2a endpoint titer (IgG2a; [5]): 0
- IgG2a endpoint titer (IgG2a; [22]): 0
- IgG2a endpoint titer (IgG2a; [6]): 40
- IgG2a endpoint titer (IgG2a; [7]): 640
- IgG2a endpoint titer (IgG2a; [8]): 2560
- IgG2a endpoint titer (IgG2a; [9]): 1280
- IgG2a endpoint titer (IgG2a; [10]): 5120
- IgG2a endpoint titer (IgG2a; [11]): 2560
- IgG2a endpoint titer (IgG2a; [12]): 10240
- IgG2a endpoint titer (IgG2a; [13]): 5120
- IgG2a endpoint titer (IgG2a; [14]): 10240
- IgG2a endpoint titer (IgG2a; [15]): 10240
- IgG2a endpoint titer (IgG2a; [16]): 40960
- IgG2a endpoint titer (IgG2a; [17]): 40960
- IgG2a endpoint titer (IgG2a; [18]): 40960
- IgG2a endpoint titer (IgG2a; [19]): 40960
- IgG2a endpoint titer (IgG2a; [20]): 20480
- IgG2a endpoint titer (IgG2a; [21]): 20480
- IgG2b endpoint titer (IgG2b; [5]): 0
- IgG2b endpoint titer (IgG2b; [22]): 0
- IgG2b endpoint titer (IgG2b; [6]): 160
- IgG2b endpoint titer (IgG2b; [7]): 320
- IgG2b endpoint titer (IgG2b; [8]): 320
- IgG2b endpoint titer (IgG2b; [9]): 640
- IgG2b endpoint titer (IgG2b; [10]): 160
- IgG2b endpoint titer (IgG2b; [11]): 640
- IgG2b endpoint titer (IgG2b; [12]): 160
- IgG2b endpoint titer (IgG2b; [13]): 2560
- IgG2b endpoint titer (IgG2b; [14]): 160
- IgG2b endpoint titer (IgG2b; [15]): 1280
- IgG2b endpoint titer (IgG2b; [16]): 2560
- IgG2b endpoint titer (IgG2b; [17]): 1280
- IgG2b endpoint titer (IgG2b; [18]): 5120
- IgG2b endpoint titer (IgG2b; [19]): 5120
- IgG2b endpoint titer (IgG2b; [20]): 5120
- IgG2b endpoint titer (IgG2b; [21]): 5120
- IgE endpoint titer (IgE [3]): 0
- IgA endpoint titer (IgA [4]): 0
